{"source": "patent US20240376085A1", "about": "(Janssen Pharmaceutica NV, priority 2021, published 2024)", "key": {"[1]": {"tested_on": "IL-17A-induced G-CSF production in human normal keratinocyte (NHK)", "test": "NHK assay: IL-17A-induced G-CSF production in normal human keratinocytes", "type": "cell-based", "conditions": "Homo sapiens, Keratinocyte, 24 h, IL-17A 5 ng/mL, average if tested more than once", "how_it_was_run": "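IC50 derives from G-CSF in supernatants, quantified by HTRF from a standard curve, with CellTiter-Glo viability compared to DMSO control. Before a 24 h, 37°C culture of normal human keratinocytes at 3000–4000 cells/well, compound dilutions were preincubated 1 h at rt with human IL-17A (5 ng/mL final), with 0.2% DMSO and 5% FBS.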"}, "IL-17A : IL-17RA binding": {"target": "T1, IL-17A : IL-17RA binding (Homo sapiens, UniProt Q16552, K93Q)", "T1 construct": "Name: IL-17A-Flag", "T1 sequence (Q16552 with tags, fused parts or gaps K93Q)": "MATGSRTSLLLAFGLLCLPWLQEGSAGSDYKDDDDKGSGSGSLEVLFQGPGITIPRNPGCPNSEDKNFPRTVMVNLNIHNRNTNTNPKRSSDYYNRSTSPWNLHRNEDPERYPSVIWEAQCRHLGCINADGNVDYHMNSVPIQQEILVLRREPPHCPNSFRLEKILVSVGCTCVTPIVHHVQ", "test": "IL-17A(FLAG-tagged):IL-17RA(His-tagged) binding disruption Eu-HTRF assay, Protocol 1", "conditions": "FLAG-IL-17A 2.5 nM at 2x final concentration; average if tested more than once", "how_it_was_run": "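IC50 came from a one-site competition fit of the acceptor/donor (665/620 nm) HTRF ratio. His-tagged IL-17RA, Eu-anti-FLAG and D2-anti-His were added after a 1 h rt compound preincubation with FLAG-tagged IL-17A dimer in PBS/0.01% Triton X-100, followed by 2 h at rt before reading.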"}}, "note": "pIC50: −log10 of the molar value.", "data": [{"smiles": "CC(C)n1nccc1C(=O)N[C@@H](COC(C)C(F)(F)F)c1nc2ccc([C@H](NC(=O)CC3CC(F)(F)C3)C3CC3)cc2[nH]1", "note": "(relative stereo) [Example 156, N—((R*)-1-(6-((R)-Cyclopropyl(2-(3,3-difluorocyclobutyl)acetamido)methyl)-1H-benzo[d]imidazol-2-yl)-2-(((R)-1,1,1-trifluoropropan-2-yl)oxy)ethyl)-1-isopropyl-1H-pyrazole-5-carboxamide]", "values": [{"measurement": "pIC50", "setting": "[1]", "value": "7.00 to 7.30"}, {"measurement": "pIC50", "setting": "IL-17A : IL-17RA binding", "value": "7.00 to 7.30"}]}, {"smiles": "Cc1nonc1C(=O)N[C@H](c1nc2ccc([C@H](NC(=O)CC3CC(F)(F)C3)C3CC3)cc2[nH]1)[C@H]1C[C@@H](CC(F)(F)F)C1", "note": "(single isomer, unassigned) [Example 244]", "values": [{"measurement": "pIC50", "setting": "[1]", "value": "< 7.00"}, {"measurement": "pIC50", "setting": "IL-17A : IL-17RA binding", "value": "< 7.00"}]}, {"smiles": "C[C@@H](NC(=O)CCC(F)(F)F)c1ccc2[nH]c([C@@H](NC(=O)[C@@H]3C[C@@H]3C#N)C3CCC(F)(F)CC3)nc2c1", "note": "[Example 102, cis-(1,2)-2-Cyano-N—((S)-(4,4-difluorocyclohexyl)(5-((R)-1-(4,4,4-trifluorobutanamido)ethyl)-1H-benzo[d]imidazol-2-yl)methyl)cyclopropane-1-carboxamide]", "values": [{"measurement": "pIC50", "setting": "[1]", "value": "< 7.00"}, {"measurement": "pIC50", "setting": "IL-17A : IL-17RA binding", "value": "< 7.00"}]}, {"smiles": "Cc1nonc1C(=O)N[C@H](c1nc2cc([C@H](NC(=O)CC3CC(F)(F)C3)C3CC3)ccc2[nH]1)C1CCC(F)(F)CC1", "note": "[Example 141, N—((S)-(5-((R)-Cyclopropyl(2-(3,3-difluorocyclobutyl)acetamido)methyl)-1H-benzo[d]imidazol-2-yl)(4,4-difluorocyclohexyl)methyl)-4-methyl-1,2,5-oxadiazole-3-carboxamide]", "values": [{"measurement": "pIC50", "setting": "[1]", "value": "> 7.30"}, {"measurement": "pIC50", "setting": "IL-17A : IL-17RA binding", "value": "> 7.30"}]}, {"smiles": "CC(C)n1nccc1C(=O)N[C@@H](CC1(C(F)(F)F)CC1)c1nc2ccc([C@H](NC(=O)CC3CC(F)(F)C3)C3CC3)cc2[nH]1", "note": "[Example 243, N—((S)-1-(6-((R)-Cyclopropyl(2-(3,3-difluorocyclobutyl)acetamido)methyl)-1H-benzo[d]imidazol-2-yl)-2-(1-(trifluoromethyl)cyclopropyl)ethyl)-1-isopropyl-1H-pyrazole-5-carboxamide]", "values": [{"measurement": "pIC50", "setting": "[1]", "value": "7.00 to 7.30"}, {"measurement": "pIC50", "setting": "IL-17A : IL-17RA binding", "value": "< 7.00"}]}, {"smiles": "CC(C)(C[C@H](NC(=O)c1nonc1C1CC1)c1nc2ccc([C@H](NC(=O)CC3CC(F)(F)C3)C3CC3)cc2[nH]1)C(F)(F)F", "note": "[Example 178, 4-Cyclopropyl-N—((S)-1-(6-((R)-cyclopropyl(2-(3,3-difluorocyclobutyl)acetamido)methyl)-1H-benzo[d]imidazol-2-yl)-4,4,4-trifluoro-3,3-dimethylbutyl)-1,2,5-oxadiazole-3-carboxamide]", "values": [{"measurement": "pIC50", "setting": "[1]", "value": "> 7.30"}, {"measurement": "pIC50", "setting": "IL-17A : IL-17RA binding", "value": "> 7.30"}]}, {"smiles": "CC(C)c1c(C(=O)NC(CC(C)(C)C(F)(F)F)c2nc3cc([C@@H](C)NC(=O)CCC(F)(F)F)ccc3[nH]2)no[n+]1[O-]", "note": "(single isomer, unassigned) [Example 56, 3-Isopropyl-4-(((S*)-4,4,4-trifluoro-3,3-dimethyl-1-(5-((R)-1-(4,4,4-trifluorobutanamido)ethyl)-1H-benzo[d]imidazol-2-yl)butyl)carbamoyl)-1,2,5-oxadiazole 2-oxide]", "values": [{"measurement": "pIC50", "setting": "[1]", "value": "7.00 to 7.30"}, {"measurement": "pIC50", "setting": "IL-17A : IL-17RA binding", "value": "7.00 to 7.30"}]}, {"smiles": "Cc1nonc1C(=O)N[C@H](c1nc2ccc([C@H](NC(=O)CC3CC(F)(F)C3)C3CC3)cc2[nH]1)[C@H]1C[C@@H]2[C@H](C1)C2(F)F", "note": "[Example 240, N—((S)-(6-((R)-Cyclopropyl(2-(3,3-difluorocyclobutyl)acetamido)methyl)-1H-benzo[d]imidazol-2-yl)((1R,3r,5S)-6,6-difluorobicyclo[3.1.0]hexan-3-yl)methyl)-4-methyl-1,2,5-oxadiazole-3-carboxamide]", "values": [{"measurement": "pIC50", "setting": "[1]", "value": "< 7.00"}, {"measurement": "pIC50", "setting": "IL-17A : IL-17RA binding", "value": "> 7.30"}]}, {"smiles": "CC(C)n1nccc1C(=O)NC(CO[C@H](C)C(F)(F)F)c1nc2ccc([C@H](NC(=O)CC3CC(F)(F)C3)C3CC3)cc2[nH]1", "note": "(single isomer, unassigned) [Example 157, N—((R*)-1-(6-((R)-Cyclopropyl(2-(3,3-difluorocyclobutyl)acetamido)methyl)-1H-benzo[d]imidazol-2-yl)-2-(((R)-1,1,1-trifluoropropan-2-yl)oxy)ethyl)-1-isopropyl-1H-pyrazole-5-carboxamide]", "values": [{"measurement": "pIC50", "setting": "[1]", "value": "7.00 to 7.30"}, {"measurement": "pIC50", "setting": "IL-17A : IL-17RA binding", "value": "> 7.30"}]}, {"smiles": "CC(C)(O)c1nonc1C(=O)N[C@@H](COC(C)(C)C(F)(F)F)c1nc2cc([C@H](NC(=O)CC3CC(F)(F)C3)C3CC3)ccc2[nH]1", "note": "[Example 168, N—((R)-1-(5-((R)-Cyclopropyl(2-(3,3-difluorocyclobutyl)acetamido)methyl)-1H-benzo[d]imidazol-2-yl)-2-((1,1,1-trifluoro-2-methylpropan-2-yl)oxy)ethyl)-4-(2-hydroxypropan-2-yl)-1,2,5-oxadiazole-3-carboxamide]", "values": [{"measurement": "pIC50", "setting": "[1]", "value": "< 7.00"}, {"measurement": "pIC50", "setting": "IL-17A : IL-17RA binding", "value": "7.00 to 7.30"}]}, {"smiles": "C[C@@H](NC(=O)CCC(F)(F)F)c1ccc2[nH]c([C@@H](NC(=O)c3cn(CC4CC4)nn3)C3CCC(F)(F)CC3)nc2c1", "note": "[Example 10, 1-(Cyclopropylmethyl)-N—[(S)-(4,4-difluorocyclohexyl)-[6-[(1R)-1-(4,4,4-trifluorobutanoylamino)ethyl]-1H-benzimidazol-2-yl]methyl]triazole-4-carboxamide]", "values": [{"measurement": "pIC50", "setting": "[1]", "value": "< 7.00"}, {"measurement": "pIC50", "setting": "IL-17A : IL-17RA binding", "value": "< 7.00"}]}, {"smiles": "CC(C)c1nonc1C(=O)NC(CC(C)(C)C(F)(F)F)c1nc2cc([C@@H](C)NC(=O)CCC(F)(F)F)ccc2[nH]1", "note": "(single isomer, unassigned) [Example 57, 4-Isopropyl-N—((S*)-4,4,4-trifluoro-3,3-dimethyl-1-(5-((R)-1-(4,4,4-trifluorobutanamido)ethyl)-1H-benzo[d]imidazol-2-yl)butyl)-1,2,5-oxadiazole-3-carboxamide]", "values": [{"measurement": "pIC50", "setting": "[1]", "value": "> 7.30"}, {"measurement": "pIC50", "setting": "IL-17A : IL-17RA binding", "value": "> 7.30"}]}, {"smiles": "Cc1c(C(=O)NC(CC(C)(C)C(F)(F)F)c2nc3cc([C@@H](C)NC(=O)CCC(F)(F)F)ccc3[nH]2)cnn1CC(F)(F)F", "note": "(stereo in doubt) [Example 223, 5-Methyl-N—((S*)-4,4,4-trifluoro-3,3-dimethyl-1-(5-((R)-1-(4,4,4-trifluorobutanamido)ethyl)-1H-benzo[d]imidazol-2-yl)butyl)-1-(2,2,2-trifluoroethyl)-1H-pyrazole-4-carboxamide]", "values": [{"measurement": "pIC50", "setting": "[1]", "value": "< 7.00"}, {"measurement": "pIC50", "setting": "IL-17A : IL-17RA binding", "value": "< 7.00"}]}, {"smiles": "Cc1nonc1C(=O)N[C@H](c1nc2ccc([C@H](NC(=O)CC3CC(F)(F)C3)C3CC3)cc2[nH]1)[C@@H]1C[C@H]2C[C@H]2C1", "note": "[Example 254, N—((S)-((1R,3s,5S)-Bicyclo[3.1.0]hexan-3-yl)(6-((R)-cyclopropyl(2-(3,3-difluorocyclobutyl)acetamido)methyl)-1H-benzo[d]imidazol-2-yl)methyl)-4-methyl-1,2,5-oxadiazole-3-carboxamide]", "values": [{"measurement": "pIC50", "setting": "[1]", "value": "< 7.00"}, {"measurement": "pIC50", "setting": "IL-17A : IL-17RA binding", "value": "> 7.30"}]}, {"smiles": "C[C@@H](NC(=O)CCC(F)(F)F)c1ccc2[nH]c([C@@H](NC(=O)c3cnnn3CC3CCC3(F)F)C3CCC(F)(F)CC3)nc2c1", "note": "(stereo partly drawn) [Example 86, 1-((2,2-Difluorocyclobutyl)methyl)-N—((S)-(4,4-difluorocyclohexyl)(5-((R)-1-(4,4,4-trifluorobutanamido)ethyl)-1H-benzo[d]imidazol-2-yl)methyl)-1H-1,2,3-triazole-5-carboxamide]", "values": [{"measurement": "pIC50", "setting": "[1]", "value": "< 7.00"}, {"measurement": "pIC50", "setting": "IL-17A : IL-17RA binding", "value": "< 7.00"}]}]}
